Test results published in patent publication US20210252159A1, “CONJUGATES OF CARTILAGE-HOMING PEPTIDES” (priority 2018, published 2021).
Where two headings read alike, the source gives them in different places.

Legend:
CIA rats [1] = format: in vivo; conditions: 0.2 mg/kg on study day 0 and day 1
Protocol: A study was conducted in CIA rats to address the following: 1) functionality and duration of effect for peptide(SEQ ID NO: 105)-carbamate-Dex at 0.2 mg/kg as compared to Dex alone at the same dose; 2) functionality and duration of effect for peptide(SEQ ID NO: 105)-DMA-Dex at 0.05 mg/kg as compared to Dex alone at the same dose; 3) systemic markers of Dex exposure in rats treated with each PDC and Dex at their respective doses (FIG. 16B-FIG. 16G).
CIA was induced as described above in EXAMPLE 21. Rats were enrolled in the study following onset of arthritis in at least one ankle and randomly assigned into one of five treatment groups (vehicle; peptide-carbamate 0.2 mg/kg; Dex 0.2 mg/kg; peptide-DMA conjugate 0.05 mg/kg; Dex 0.05 mg/kg) with 5 rats per group. Treatment was administered on study day 0 and study day 1 and rats were euthanized on study day 7. The primary read-out in this cohort was change in ankle diameter during and after treatment, as a measure of functionality and duration of effect. […] The primary read-out for this cohort was measures of systemic exposure to Dex which included thymus weight, spleen weight, total white blood cell counts, lymphocyte counts, and change in body weight.

[2] = IL-1β challenge rat model, dose-ranging study: CBC, organ weights, tolerability; format: in vivo, rats
Protocol: IL-6 was measured in knee lavage fluid using a Luminex assay and levels were normalized to total protein in the lavage fluid (FIG. 24). Assessment of the PD inflammatory marker IL-6 in the knee joints of rats challenged with IL-1β was performed. Terminal synovial fluid was collected from all animals and analyzed by Luminex 200 for IL-6 cytokine concentrations using EMD Milliplex MAP Rat Cytokine/Chemokine Magnetic Panel ([…]-65K). […] Doses are listed as nmol/kg The masses of these doses are given below in TABLE 16. Two hours and forty-five minutes (i.e., 2.75 hrs) after administration of the test agents, animals were gently heated and blood was drawn from the tail vein for CBC analysis. Animals were then anesthetized with inhaled isoflurane and injected with 30 ng of IL-1β into the right knee (except for no IL-1β group). Four hours after administration of IL-1β (seven hours after administration of test agent) the animals were euthanized. Blood was drawn for a second CBC analysis and the right knee was lavaged for detection of IL-6 in the lavage fluid using a Luminex assay. Thymus and spleen were harvested and their organ weights determined.
In the same animals for which IL-6 secretion was measured, CBC data (e.g., lymphocyte counts) were also analyzed (FIG. 25) at an early time-point, 2.75 hrs post administration of the test article (FIG. 25A), and at euthanasia 7 hrs post administration (FIG. 25B). All treatments were administered as described above for the measurement of IL-6 secretion.
All treatments and test articles were administered as described above, except for an additional treatment group that received 510 nmol/kg of the peptide-drug conjugate peptide(SEQ ID NO: 105)-DMA-dCIC.

[3] = Systemic markers for glucocorticoid exposure in normal rats; format: in vivo; conditions: normal female Lewis rats
Protocol: In order to evaluate markers of systemic dexamethasone exposure in normal rats, time points were selected to simulate drug administration for studies (e.g., dosing on days 10 and 11, euthanize on day 12 or dosing on days 11-14 and euthanize on day 14). […] Rats were euthanized 24 hours after the second dose, or 5 hours after the fourth dose. Body weight was measured daily. At euthanasia, liver, spleen, thymus, and kidney weights were recorded and blood was collected for CBC and serum chemistry analysis. To establish the CIA model, female Lewis rats were inoculated with an intradermal injection of bovine collagen II on day 0 and a challenge dose was administered on day 7. Ankle and knee joint diameters were measured daily. Rats were euthanized on day 10, day 12 and day 14 at which time liver, spleen, thymus, and kidney weights were recorded and blood was collected for complete blood count (CBC)/blood chemistry analysis.

IL-6 = conditions: 30 or 3 μg, 4 h
Protocol: After 4 h, IL-6 levels in synovial fluid of the same knee were measured by Luminex and normalized to protein content of the knee lavage.

CIA rats [4] = test system: CIA rats
Protocol: Arthritis was induced in 9-week-old female Lewis rats (Envigo or Charles River Laboratories) by intradermal injection while anesthetized of 400 ug bovine type II collagen (Chondrex Inc, Redmond Wash.) in 2 adjacent 200 ul (1 mg/ml) doses on day 0. Collagen is prepared for injection by dissolving at 2 mg/ml in 0.01N glacial acetic acid in sterile water and rocking at 4° C. overnight then emulsifying in Freund's incomplete adjuvant (IFA, Sigma Aldrich). To emulsify, equal volumes of collagen solution and IFA are drawn up into separate syringes, which are joined by a 3-way stopcock. While on ice, the collagen and IFA are mixed by pressing between the two syringes rapidly for 10 minutes. Quality of the emulsification is tested after 10 minutes of mixing by dropping a small amount of mixture in water. A properly emulsified solution will remain as a discrete droplet and not disperse in the water. On day 7, rats are challenged with a second intradermal injection of 100 ug of collagen in 100 ul, 1 mg/ml, collagen in IFA solution prepared fresh. Body weight and ankle diameter measurements are recorded daily from day 7 through the end of the study. Ankle diameter was measure by a single researcher using a Fowler Digitrix 2 micrometer. Three measurements of each ankle were taken of the lateral dimension at the tarsus of lightly anesthetized rats. The reported ankle diameter measurement is the mean of the three measurements.
Arthritis was induced as described in four cohorts of 9-week-old female Lewis rats. Rats were randomly placed in treatment groups, balancing compound and dose groups across cohorts. […] Rats were dosed by tail vein injection on days 11 and 12 and euthanized on day 13 by CO2 asphyxiation. Immediately after cessation of respiratory movement, blood was collected by cardiac puncture, synovial fluid was collected from both knees, one hind limb was fixed in formalin and the alternate ankle was frozen on dry ice. Thymus, spleen, liver, and kidney weights were recorded.
CIA Response study design.
The aim of the study was to test the 4 conjugates with various linkers at two different doses in vivo in CIA rats to assess the following: ability to deliver sufficient dexamethasone to the joint to show functionality and potential therapeutic effect in the disease model.
CIA was induced in female Lewis rats (as described above, see EXAMPLE 21). Body weight and ankle joint diameters were measured on day 0 and then daily from day 7 until euthanasia. […] At euthanasia, synovial fluid was collected from both knees, one hind limb was fixed in formalin and the alternate ankle was frozen on dry ice. Thymus, spleen, liver, and kidney weights were recorded. Blood samples were submitted for CBC/Chemistry analysis, and the remaining plasma was frozen.

[5] = 1 mg/kg/day for 2 days and 4 days
[6] = 1 mg/kg/day for 2 days or 4 days, vs vehicle and CIA rats

Dexamethasone sodium phosphate [DexSP]
ankle inflammation / ankle diameter as compared to vehicle (CIA rats [1]): highly effective in reducing ankle diameter to baseline levels | monocytes (CBC) ([2]; 2.75 hours post-treatment): dose dependent decrease | Lymphocyte counts as compared to vehicle control ([2]; 2.75 hrs post administration, Dex both doses, dCIC IA or IV): substantial reduction in lymphocyte counts | Lymphocyte counts at euthanasia ([2]; 7 hours post administration, all dose levels): lower at 7 hours as compared to 2.75 hours | other liver enzymes ([3]; 1 mg/kg/day): no significant changes | red blood cell (RBC) count, hematocrit, neutrophil, monocyte or eosinophil counts ([3]; 1 mg/kg/day): no significant changes | absolute lymphocyte count [3, 5]: decreased | total white blood cell (WBC) count [3, 5]: decreased | Body weight ([3]; 1 mg/kg/day for 2 days or 4 days): declined | spleen weight [3, 6]: significantly decreased | thymus weight [3, 6]: significantly decreased | Nucleated RBCs ([3]; 4 doses of 1 mg/kg/day): detected in four of the five rats | IL-6 secretion in synovial fluid (IL-6; administered IA (co-injected with IL-1b)): no decrease | IL-6 secretion in synovial fluid (IL-6; administered IV): some decrease | spleen weight (CIA rats [4]; 0.2 mg/kg and 0.5 mg/kg dose): reduction | thymus weight (CIA rats [4]; 0.2 mg/kg and 0.5 mg/kg dose): reduction | total body weight (CIA rats [4]; 0.2 mg/kg and 0.5 mg/kg dose): reduction | change in median ankle diameter between day 11 and day 13 as compared to vehicle (CIA rats [4]; 0.2 mg/kg dose): did not reach statistical significance | reduction in thymus weight as compared to vehicle (CIA rats [4]; 0.2 mg/kg dose groups): statistically significant
